The values below come from patent publication US10231986B2, “Amino acid phosphoramidate pronucleotides of 2′-cyano, azido and amino nucleosides for the treatment of HCV” (Centre National De La Recherche Scientifique, priority 2013, dated 2019).

For series [1], the target named is T1, wild-type HCV genotype 1b NS5B protein (recombinant HCV polymerase) (Hepatitis C virus genotype 1b, UniProt Q9WMX2).
T1 construct: approximately 65 kDa HCV genotype 1b NS5B protein were used to generate recombinant HCV polymerases; made in house
The series can be described thus: HCV polymerase enzyme assay, wild-type. The series is classed as biochemical. The source says:
(§1) Test compounds in the form of nucleoside triphosphates were examined for inhibitory activity against purified HCV polymerase in a standard assay. Bacterial expression constructs encoding the approximately 65 kDa HCV genotype 1b NS5B protein were used to generate recombinant HCV polymerases (with a deletion of the 21 carboxy terminal amino acids). Both the wild-type genotype 1b protein and protein containing the S282T mutation were expressed and purified for use in the enzymatic activity assay.
(§2) The enzymatic activity assay measured the inhibitory effect of increasing concentrations of test compound on the incorporation of α-[^33P]-labeled nucleotide into trichloroacetic acid-precipitable material. Recombinant polymerase and synthetic RNA template were combined in reaction buffer containing ribonucleoside triphosphates, α-[^33P]-labeled nucleotide and eight concentrations of test compound in three-fold dilutions. Reactions were incubated for two hours at 30° C.
(§3) Reactions were terminated by the addition of ice-cold trichloroacetic acid and sodium pyrophosphate to promote precipitation of newly-synthesized ribonucleic acid. Precipitable material from the reactions was collected by filtration onto 96-well filter plates, washed extensively with water, and quantified by liquid scintillation.
(§4) The inhibitory activity of test compounds was determined by fitting results to dose-response curves using XLfit software.

A short description of series [2]: Cytotoxicity evaluation, CellTiter-Blue Cell Viability Assay. The conditions noted are these: human.
The subject of series [3] is HCV genotype 1b replicon in Huh-7-derived cell line (Zluc). The series can be described thus: HCV replicon assay (luciferase reporter). It counts as cell-based. The protocol:
Huh-7-derived cell line (Zluc) that harbors an HCV genotype 1b replicon and a luciferase reporter gene was grown in Dulbecco's Modified Eagle Medium (DMEM) supplemented with 10% fetal bovine serum, 2 mM GlutaMAX, 1% MEM nonessential amino acids, 100 IU/mL penicillin, 100 μg/mL streptomycin, and 0.5 mg/mL Geneticin® (G418). For dose response testing the cells were seeded in 96-well plates at 7.5×10^3 cells per well in a volume of 50 μL, and incubated at 37° C./5% CO2. Drug solutions were made up freshly in Huh-7 media as 2× stocks. Ten additional 5-fold dilutions were prepared from these stocks in DMEM without G418. At least three hours after Zluc cells were seeded, drug treatment was initiated by adding 50 μL of drug dilutions to the plates in duplicate. Final concentrations of drug ranged from 100 μM to […]. Cells were then incubated at 37° C./5% CO2. Alternatively, compounds were tested at two concentrations (1 μM and 10 μM). […] For this, media was removed from the plates via gentle tapping. Fifty microliters of ONE-glo luciferase assay reagent was added to each well. The plates were shaken gently for 3 min at room temperature and luminescence was measured on a Victor^3 V 1420 multilabel counter (Perkin Elmer) with a 1 second read time using a 700 nm cut-off filter. The EC50 values were calculated from dose response curves from the resulting best-fit equations determined by Microsoft Excel and XLfit 4.1 software. When screening at two fixed concentrations, the results were expressed as % inhibition at 1 μM and 10 μM.

Series [4] deals with T2, HCV genotype 1b NS5B protein containing the S282T mutation (Hepatitis C virus genotype 1b, UniProt Q9WMX2, S2701T).
T2 construct: approximately 65 kDa HCV genotype 1b NS5B protein were used to generate recombinant HCV polymerases; made in house
The series can be described thus: HCV polymerase enzyme assay, S282T mutant. The series is classed as biochemical.
Description: as §1, §2, §3, §4

For the next series, the system named is Zluc cells. The series can be described thus: Cytotoxicity evaluation, CellTiter-Blue Cell Viability Assay. The settings on record: read-out: HCV Replicon CC50; Zluc cells, CellTiter-Blue.
Setting [5] is: Zluc cells, genotype 1b replicon, 72 hours of incubation, read-out: HCV Replicon EC50.
Setting [6] is: Hepatitis C virus, 72 h, read-out: HCV Replicon EC50, Zluc cells, genotype 1b replicon, 72 hours of incubation.
[7] abbreviates: Hepatitis C virus, 72 h, Zluc cells, genotype 1b replicon, 72 hours of incubation, read-out: HCV Replicon EC50.
Setting [8] is: Zluc cells (HCV replicon cells).

Molecules are shown by their SMILES. pEC50, pIC50: −log10 of the molar value. Read-outs that look alike come from different tables or passages of the source.

As for `C[C@@]1(C#N)[C@H](O)[C@@H](COP(=O)(O)OP(=O)(O)OP(=O)(O)O)O[C@H]1n1ccc(N)nc1=O` [Compound 205], in series [1], the pIC50 is 6.00 to 6.60.
Consider `CC(C)OC(=O)[C@H](C)NP(=O)(OC[C@H]1O[C@@H](n2ccc(=O)[nH]c2=O)[C@](C)(N)[C@@H]1O)Oc1ccccc1` (single isomer, unassigned) [Reference Compound A19 Diastereomer 1, reference compound], for which the CC50 at 72 h in series [2] was more than 50 µM. Besides, in series [3] (setting [5]), the pEC50 was less than 5.00.
Turning to `C[C@@]1(N=[N+]=[N-])[C@H](O)[C@@H](COP(=O)(O)OP(=O)(O)OP(=O)(O)O)O[C@H]1n1cnc2c(N)ncnc21` [Compound 201], the values for the pIC50 in series [4] and in series [1] were less than 5.00 and 6.00 to 6.60, respectively.
As to `CC(C)OC(=O)[C@H](C)NP(=O)(OC[C@H]1O[C@@H](n2ccc(=O)[nH]c2=O)[C@](C)(N)[C@@H]1O)Oc1ccccc1` (single isomer, unassigned) [Reference Compound A19 Diastereomer 2, reference compound], the CC50 in the series with Zluc cells was more than 50 µM. Moreover, in series [3] (setting [5]), the pEC50 was 5.00 to 6.00.
For the compound `C[C@@]1(N)[C@H](O)[C@@H](COP(=O)(O)OP(=O)(O)OP(=O)(O)O)O[C@H]1n1ccc(N)nc1=O` [Compound 206], the negative-log IC50 (pIC50) in series [1] was 5.00 to 6.00.
Regarding `CC(C)OC(=O)[C@H](C)NP(=O)(OC[C@H]1O[C@@H](n2ccc(N)nc2=O)[C@H](N)[C@@H]1O)Oc1ccccc1` (single isomer, unassigned) [Compound 531 Diastereomer 1], in series [2], the cytotoxic concentration (CC50) at 72 h is more than 50 µM. The pEC50 in series [3] (setting [6]) was less than 5.00.
The corresponding values for `CC(C)OC(=O)[C@H](C)NP(=O)(OC[C@H]1O[C@@H](n2ccc(N)nc2=O)[C@H](N=[N+]=[N-])[C@@H]1O)Oc1ccccc1` (single isomer, unassigned) [Compound 530 Diastereomer 1] are more than 50 µM and less than 5.00.
On to `C[C@@]1(N=[N+]=[N-])[C@H](O)[C@@H](COP(=O)(O)OP(=O)(O)OP(=O)(O)O)O[C@H]1n1ccc(=O)[nH]c1=O` [Compound 202], for which the negative logarithm of the IC50 (pIC50) in series [4] was less than 5.00; in series [1] it was 6.00 to 6.60.
On to `CC(C)OC(=O)[C@@H](C)N[P@@](=O)(OC[C@H]1O[C@@H](n2ccc(N)nc2=O)[C@](C)(C#N)[C@@H]1O)Oc1ccccc1` [Compound 1a], for which the cytotoxic concentration (CC50) at 72 h in series [2] was more than 50 µM. In addition, the negative logarithm of the EC50 (pEC50) in series [3] (setting [7]) was less than 5.00.
With `Nc1ccn([C@@H]2O[C@H](COP(=O)(O)OP(=O)(O)OP(=O)(O)O)[C@@H](O)[C@H]2N)c(=O)n1` [Compound 207], in series [1], the pIC50 was 6.00 to 6.60.
`CC(C)OC(=O)[C@H](C)NP(=O)(OC[C@H]1O[C@@H](n2ccc(=O)[nH]c2=O)[C@H](N=[N+]=[N-])[C@@H]1O)Oc1ccccc1` (single isomer, unassigned) [Compound 528 Diastereomer 2]: the CC50 in the series on Zluc cells is more than 50 µM. In addition, the negative-log EC50 (pEC50) in series [3] (setting [5]) was less than 5.00.
`C[C@]1(N=[N+]=[N-])C(n2cnc3c(N)ncnc32)O[C@H](CO)[C@H]1O` (stereo partly shown) [Reference Compound 101, reference compound] came in with a CC50 at 72 h in series [2] (setting [8]) of more than 50 µM. Moreover, the pEC50 in series [3] (setting [7]) is less than 5.00.
In series [2], `CC(C)OC(=O)[C@H](C)NP(=O)(OC[C@H]1O[C@@H](n2ccc(=O)[nH]c2=O)[C@H](N=[N+]=[N-])[C@@H]1O)Oc1ccccc1` (single isomer, unassigned) [Compound 528 Diastereomer 1] returned a cytotoxic concentration (CC50) at 72 h of more than 50 µM. Besides, the pEC50 in series [3] (setting [7]) is less than 5.00.
`C[C@@]1(N)[C@H](O)[C@@H](CO)O[C@H]1n1ccc(=O)[nH]c1=O` [Reference Compound 103, reference compound] came in with a CC50 at 72 h in series [2] (setting [8]) of more than 50 µM. Also, the negative-log EC50 (pEC50) in series [3] (setting [7]) was less than 5.00.
For `CC(C)OC(=O)[C@H](C)NP(=O)(OC[C@H]1O[C@@H](n2ccc(=O)[nH]c2=O)[C@H](N)[C@@H]1O)Oc1ccccc1` (single isomer, unassigned) [Compound 526 Diastereomer 1], the 50% cytotoxic concentration (CC50) at 72 h in series [2] was more than 50 µM. Moreover, in series [3] (setting [7]), the negative logarithm of the EC50 (pEC50) is less than 5.00.
Consider `CC(C)OC(=O)[C@H](C)NP(=O)(OC[C@H]1O[C@@H](n2ccc(=O)[nH]c2=O)[C@H](N)[C@@H]1O)Oc1ccccc1` (single isomer, unassigned) [Compound 526 Diastereomer 2], for which the CC50 in the series on Zluc cells was more than 50 µM. The negative logarithm of the EC50 (pEC50) in series [3] (setting [5]) was less than 5.00.
Regarding `C[C@@]1(N)[C@H](O)[C@@H](COP(=O)(O)OP(=O)(O)OP(=O)(O)O)O[C@H]1n1ccc(=O)[nH]c1=O` [Compound 203], the values for the pIC50 in series [4] and in series [1] were less than 5.00 and 5.00 to 6.00, respectively.
In the case of `C[C@@]1(N)[C@H](O)[C@@H](COP(=O)(O)OP(=O)(O)OP(=O)(O)O)O[C@H]1n1cnc2c(N)ncnc21` [Compound 208], the pIC50 is less than 5.00 in series [4] and 5.00 to 6.00 in series [1].
`CC(C)OC(=O)[C@H](C)NP(=O)(OC[C@H]1O[C@@H](n2ccc(N)nc2=O)[C@H](N=[N+]=[N-])[C@@H]1O)Oc1ccccc1` (mixture of isomers) [Compound 530 Diastereomer Mix] returned a CC50 at 72 h in series [2] of more than 50 µM. For the same compound, the pEC50 in series [3] (setting [6]) was less than 5.00.
Turning to `CC1(C#N)C(O)C(CO)OC1n1ccc(N)nc1=O` (stereo not shown) [Reference Compound A9b, reference compound], the CC50 with Zluc cells was more than 50 µM. For the same compound, the negative-log EC50 (pEC50) in series [3] (setting [5]) was 5.00 to 6.00.
In the case of `CC(C)OC(=O)[C@H](C)NP(=O)(OC[C@H]1O[C@@H](n2ccc(=O)[nH]c2=O)[C@](C)(N=[N+]=[N-])[C@@H]1O)Oc1ccccc1` (single isomer, unassigned) [Reference Compound A18 Diastereomer 1, reference compound], the half-maximal cytotoxic concentration (CC50) at 72 h in series [2] is more than 50 µM. In addition, the pEC50 in series [3] (setting [7]) is less than 5.00.
As to `C[C@@]1(C#N)[C@H](O)[C@@H](COP(=O)(O)OP(=O)(O)OP(=O)(O)O)O[C@H]1n1ccc(=O)[nH]c1=O` [Compound 204], the pIC50 is 5.00 to 6.00 in series [4] and more than 6.60 in series [1].
In the case of `C[C@@]1(N=[N+]=[N-])[C@H](O)[C@@H](CO)O[C@H]1n1ccc(=O)[nH]c1=O` [Reference Compound 102, reference compound], the cytotoxic concentration (CC50) at 72 h in series [2] (setting [8]) was more than 50 µM. In series [3] (setting [7]), the negative-log EC50 (pEC50) is less than 5.00.
